Test results reported in article PMC9841589, “Identification of 2-Aminoacyl-1,3,4-thiadiazoles as Prostaglandin E2 and Leukotriene Biosynthesis Inhibitors” (ACS Medicinal Chemistry Letters, 2022).

Key:
Human recombinant 5-LO = target: T1, Human recombinant 5-LO (Homo sapiens, UniProt P09917); assay: Cell-free 5-LO activity assay; type: biochemical; conditions: percentage of uninhibited control (100%), n = 3; n.i.: no inhibitory activity observed
T1 construct: made in house; host or cells: E. coli BL21 transformed with pT3-5-LO plasmid
T1 sequence (P09917 1-674): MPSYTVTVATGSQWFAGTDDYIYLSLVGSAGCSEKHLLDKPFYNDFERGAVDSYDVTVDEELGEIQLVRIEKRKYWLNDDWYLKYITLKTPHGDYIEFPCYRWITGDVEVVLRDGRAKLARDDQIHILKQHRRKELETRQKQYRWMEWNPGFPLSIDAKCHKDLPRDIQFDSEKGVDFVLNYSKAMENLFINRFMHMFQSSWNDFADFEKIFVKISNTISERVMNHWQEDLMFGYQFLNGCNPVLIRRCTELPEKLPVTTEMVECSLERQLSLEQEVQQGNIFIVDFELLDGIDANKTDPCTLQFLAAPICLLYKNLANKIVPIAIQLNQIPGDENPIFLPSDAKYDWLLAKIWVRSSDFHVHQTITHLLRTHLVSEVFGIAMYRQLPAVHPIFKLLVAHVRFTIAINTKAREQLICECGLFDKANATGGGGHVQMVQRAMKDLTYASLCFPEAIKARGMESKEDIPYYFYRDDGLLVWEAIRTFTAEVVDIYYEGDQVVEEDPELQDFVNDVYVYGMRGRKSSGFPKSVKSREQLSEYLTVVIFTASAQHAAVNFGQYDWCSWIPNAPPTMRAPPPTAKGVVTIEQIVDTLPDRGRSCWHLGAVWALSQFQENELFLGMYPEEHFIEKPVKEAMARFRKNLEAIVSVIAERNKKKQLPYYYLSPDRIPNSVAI
Method: mM glutathione, and 250 mM sucrose) and the protein concentration was defined. Potassium phosphate buffer (0.1 M, pH = 7.4) plus glutathione (2.5 mM) was added to dilute microsomes, which were then seeded in a 96-well plate. Test compounds 1-9 (10 µM) or DMSO (1%) were added and preincubated for 15 min on ice. MK886 (10 µM) and MD-52 (1 µM) were used as reference drugs.
The reactions started by adding 20 µM of PGH2, and 1 min later, 100 µl of a solution containing FeCl3 (40 mM), citric acid (80 mM), and 11β-PGE 2 (10 µM) were added for stopping the conversion of PGH2. After the extraction of PGE2 and 11β-PGE 2 (internal stardard) by solid-phase extraction, the quantity of product formation (PGE2) was determined by RP-HPLC.114
Cell-free 5-LO activity assay
Human recombinant 5-LO was expressed in E.coli BL21 transformed with pT3-5-LO plasmid at 30 °C overnight 15.2 A lysis buffer (50 mM triethanolamine, pH = 8.0, 5 mM EDTA, 1 mM phenylmethanesulfonyl fluoride, 60 µg/mL soybean trypsin inhibitor, 2 mM dithiothreitol and lysozyme) was added. […] Finally, a solid-phase extraction then was performed using C18 RP-columns (100 mg, UCT, Bristol, PA, USA) and RP-HPLC was used to quantify 5-LOX products.3 16 The 5-LO inhibitor zileuton (3 µM) was used as positive control. […]

[1] = tested on: zymosan-induced peritonitis; assay: Zymosan-induced peritonitis in mice; type: in vivo, mouse
Method: Figure 5 Effect of compound 3 in zymosan-induced peritonitis in mice. Mice were randomly divided into different experimental groups: control group (Ctrl), model group (zymosan + vehicle compound 3), zymosan + compound 3 (i.p. injection 30 min after i.p. injection of zymosan) group, and zymosan + dexamethasone (i.p. injection 30 min after i.p. injection of zymosan) group. At (A) 4 and (B) 24 h after injection, peritoneal exudate from each mouse was recovered, and the total cell number was evaluated. Results are expressed as mean ± SD. For statistical analysis see SI.
Figure 6 Analysis of cytokine levels collected in the peritoneal exudate of mice from different experimental groups: (A, B) IL-1β, (C, D) IL-6, (E, F) PGE2, and (G, H) IL-10. Results (normalized to exudate levels) are expressed as mean ± SD. For statistical analysis see SI.
Induction of peritonitis in mice and Enzyme-Linked Immunosorbent Assay (ELISA)
To examine the anti-inflammatory action of compound 3, we next evaluated the biological activity of
compound 3 in a mouse model of zymosan-induced peritonitis, as as previously described. 13,14 26, 27
To this aim, mice were randomly divided into different experimental groups: control group (Ctrl),
model group (zymosan + vehicle compound 3), zymosan + compound 3 (0.1, 1, and 10 mg/kg), and
zymosan + dexamethasone (3 mg/kg) group. Animals received the selected compound or
dexamethasone intraperitoneally (i.p.) 30 min after i.p. injection of zymosan (500 mg/kg)26, 27. Ctrl
and model groups received an equal volume of vehicle (PBS or DMSO/saline 1:3, respectively).
Peritoneal exudates were collected at selected time points (4 and 24 h) by washing the cavity with 2
mL of PBS. Then cell number of lavage fluids was determined by TC10 automated cell counter (Bio-
Rad, Milan, Italy) using disposable slides. The remaining lavage fluids were centrifuged at 3000 rpm
for 20 min at 4 °C, and supernatants were frozen at −80 °C for further ELISA analysis according to
the manufacturer instructions (eBioscience Co., San Diego, CA, USA)10 23 of IL-1β, IL-6, PGE 2 and
IL-10 following the procedure previously described15-17 28-30. Dexamethasone and zymosan A were
purchased from Sigma-Aldrich (Milan, Italy). DMSO was purchased from Merck (Italy). Unless
otherwise stated, all the other reagents were purchased from Carlo Erba (Milan, Italy).
The data and statistical analysis in this study comply with the international recommendations on
experimental design and analysis in preclinical pharmacology18-2031-33. The results obtained were
expressed as the mean ± S.D. or as mean ± S.E.M., as reported in detail in the figure legends. IC 50
values were calculated by nonlinear regression using GraphPad Prism Version 8.0 software (San
Diego, CA) one site binding competition. Statistical evaluation of the data was performed by one-

[2] = 10 mg/kg i.p., 4 h (P ≤ 0.05) and 24 h (P ≤ 0.01)

Row | 5-LO residual activity (%) (Human recombinant 5-LO) | Structure (SMILES) | leucocyte recruitment (total cell number in peritoneal exudate) ([1]; 1 mg/kg i.p., 4 and 24 h, P ≤ 0.05) | leucocyte recruitment (total cell number in peritoneal exudate) ([1]; 10 mg/kg i.p. 30 min after zymosan, 4 h, P ≤ 0.05) | leucocyte recruitment (total cell number in peritoneal exudate) ([1]; 10 mg/kg i.p. 30 min after zymosan, 24 h, P ≤ 0.01) | IL-10 level in peritoneal exudate ([1]; 10 mg/kg i.p., 4 and 24 h) | PGE2 level in peritoneal exudate ([1]; 10 mg/kg i.p., 4 and 24 h (P ≤ 0.01)) | IL-1β level in peritoneal exudate [1, 2] | IL-6 level in peritoneal exudate [1, 2]
1 | n.i. (75.9) % | Nc1ccccc1-c1ccc(-c2nnc(NC(=O)c3c(Cl)ccnc3Cl)s2)cc1 [compound 9] | – | – | – | – | – | – | –
2 | n.i. (125) % | O=C(Nc1nnc(-c2ccc(-c3cccc(O)c3)cc2)s1)c1ccccc1Br [compound 3] | remarkable effect | reduced | reduced | modulated only at 24 h | significantly reduced | significantly reduced | significantly reduced
